These results are taken from patent publication US20230312587A1, “PTERIDINONE COMPOUNDS AND USES THEREOF” (Vertex Pharmaceutical Incorporated, priority 2018, published 2023).

The subject of the experiment is β-catenin-TCF-mediated reporter transcription activity in Colo 205 cells. The experiment in a line: Colo 205 reporter assay (TCF/LEF luciferase). Type of experiment: cell-based. Conditions: Homo sapiens, COLO 205, 5 h, Colo 205 TCF/LEF luciferase reporter, five hours after addition of compound; read-out: TCF reporter Colo205 IC50. An outline of the steps: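 Luciferase signal from a TCF/LEF-driven reporter, stably integrated in Colo 205 colon cancer cells, was measured 5 h after compound addition.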

Some results are limits rather than exact numbers.

For `Cc1nc(NCc2cnn(Cc3ccc(C(F)(F)F)nc3)c2)nc2c1NC(=O)[C@H](CC(F)(F)F)N2C` [Compound 495, (S)-4,8-dimethyl-7-(2,2,2-trifluoroethyl)-2-(((1-((6-(trifluoromethyl)pyridin-3-yl)methyl)-1H-pyrazol-4-yl)methyl)amino)-7,8-dihydropteridin-6(5H)-one], the concentration for half-maximal inhibition (IC50) is < 0.3 µM.
`CC[C@H]1C(=O)Nc2cnc(NCc3cnn(Cc4ccc(C(F)(F)F)nc4)c3)nc2N1C(C)C` [Compound 497, (7S)-7-ethyl-8-isopropyl-2-(((1-((6-(trifluoromethyl)pyridin-3-yl)methyl)-1H-pyrazol-4-yl)methyl)amino)-7,8-dihydropteridin-6(5H)-one]: the half-inhibitory concentration (IC50) was in the range of 0.3 to 1 µM.
Under `CO[C@H](C)[C@H]1C(=O)Nc2c(C)nc(NCc3cnn(Cc4ccc(C(F)(F)F)nc4)c3)nc2N1C` [Compound 498, (S)-7-((R)-1-methoxyethyl)-4,8-dimethyl-2-(((1-((6-(trifluoromethyl)pyridin-3-yl)methyl)-1H-pyrazol-4-yl)methyl)amino)-7,8-dihydropteridin-6(5H)-one] stands < 0.3 µM.
Next, `Cc1nc(N[C@H]2CC[C@@H](N(C)c3ccc(C(F)(F)F)cc3)C2)nc2c1NC(=O)[C@H](C(C)C)N2C` [Compound 502, (S)-7-isopropyl-4,8-dimethyl-2-(((1S,3R)-3-(methyl(4-(trifluoromethyl)phenyl)amino)cyclopentyl)amino)-7,8-dihydropteridin-6(5H)-one]: 1 to 5 µM; `Cc1nc(N[C@H]2CC[C@H](N(C)c3ccc(C(F)(F)F)cc3)C2)nc2c1NC(=O)[C@H](C(C)C)N2C` [Compound 503, (S)-7-isopropyl-4,8-dimethyl-2-(((1S,3S)-3-(methyl(4-(trifluoromethyl)phenyl)amino)cyclopentyl)amino)-7,8-dihydropteridin-6(5H)-one]: 1 to 5 µM.
Next, `Cc1nc(N[C@@H]2CC[C@@H](N(C)c3ccc(C(F)(F)F)cc3)C2)nc2c1NC(=O)[C@H](C(C)C)N2C` [Compound 504, (S)-7-isopropyl-4,8-dimethyl-2-(((1R,3R)-3-(methyl(4-(trifluoromethyl)phenyl)amino)cyclopentyl)amino)-7,8-dihydropteridin-6(5H)-one]: 0.3 to 1 µM; `Cc1nc(N[C@@H]2CC[C@H](N(C)c3ccc(C(F)(F)F)cc3)C2)nc2c1NC(=O)[C@H](C(C)C)N2C` [Compound 505, (S)-7-isopropyl-4,8-dimethyl-2-(((1R,3S)-3-(methyl(4-(trifluoromethyl)phenyl)amino)cyclopentyl)amino)-7,8-dihydropteridin-6(5H)-one]: 1 to 5 µM.
Take `Cc1nc(N[C@H]2C[C@H](c3ccc(OC(F)(F)F)cc3)C2)nc2c1NC(=O)[C@H](C)N2C` [Compound 506, (7S)-4,7,8-trimethyl-2-(((trans)-3-(4-(trifluoromethoxy)phenyl)cyclo-butyl)amino)-7,8-dihydropteridin-6(5H)-one]: the half-maximal inhibitory concentration (IC50) fell in the range of 0.3 to 1 µM.
Turning to `Cc1nc(N[C@H]2C[C@@H](c3ccc(OC(F)(F)F)cc3)C2)nc2c1NC(=O)[C@H](C)N2C` [Compound 507, (7S)-4,7,8-trimethyl-2-(((cis)-3-(4-(trifluoromethoxy)phenyl)cyclo-butyl)amino)-7,8-dihydropteridin-6(5H)-one], the IC50 is < 0.3 µM.
Next, `Cc1nc(NCc2cc(C)n(Cc3ccc(F)cc3)c2C)nc2c1NC(=O)[C@H](C(C)C)N2C` [Compound 508, (S)-2-(((1-(4-fluorobenzyl)-2,5-dimethyl-1H-pyrrol-3-yl)methyl)amino)-7-isopropyl-4,8-dimethyl-7,8-dihydropteridin-6(5H)-one]: 0.3 to 1 µM.
Under `Cc1nc(NCc2cnn(Cc3ccc(OC(F)(F)F)nc3)c2)nc2c1NC(=O)[C@H](C(C)C)N2C` [Compound 510, (S)-7-isopropyl-4,8-dimethyl-2-(((1-((6-(trifluoromethoxy)pyridin-3-yl)methyl)-1H-pyrazol-4-yl)methyl)amino)-7,8-dihydropteridin-6(5H)-one] stands < 0.3 µM; under `Cc1nc(N[C@H]2C[C@@H](Cn3nccc3C(F)(F)F)C2)nc2c1NC(=O)[C@H](C(C)C)N2C` [Compound 512, (S)-7-isopropyl-4,8-dimethyl-2-((cis-3-((5-(trifluoromethyl)-1H-pyrazol-1-yl)methyl)cyclobutyl)amino)-7,8-dihydropteridin-6(5H)-one], < 0.3 µM.
Next, `Cc1nc(N[C@H]2C[C@@H](NC(=O)Cc3cc(F)c(F)c(F)c3)C2)nc2c1NC(=O)[C@H](C(C)C)N2C` [Compound 514, N-(cis-3-(((S)-7-isopropyl-4,8-dimethyl-6-oxo-5,6,7,8-tetrahydropteridin-2-yl)amino)cyclobutyl)-2-(3,4,5-trifluorophenyl)acetamide]: < 0.3 µM.
For `Cc1nc(N[C@H]2C[C@H](NC(=O)Cc3cc(F)c(F)c(F)c3)C2)nc2c1NC(=O)[C@H](C(C)C)N2C` [Compound 515, N-(trans-3-(((S)-7-isopropyl-4,8-dimethyl-6-oxo-5,6,7,8-tetrahydropteridin-2-yl)amino)cyclobutyl)-2-(3,4,5-trifluorophenyl)acetamide], the IC50 was < 0.3 µM.
Next, `CC[C@H]1C(=O)Nc2c(C)nc(NCc3cnn(Cc4ccc(C(F)(F)F)o4)c3)nc2N1C` [Compound 516, (S)-7-ethyl-4,8-dimethyl-2-(((1-((5-(trifluoromethyl)furan-2-yl)methyl)-1H-pyrazol-4-yl)methyl)amino)-7,8-dihydropteridin-6(5H)-one]: < 0.3 µM; `Cc1nc(N[C@H]2CCc3c2cnn3Cc2ccc(C(F)(F)F)nc2)nc2c1NC(=O)[C@H](C(C)C)N2C` [Compound 519, (S)-7-isopropyl-4,8-dimethyl-2-(((S)-1-((6-(trifluoromethyl)pyridin-3-yl)methyl)-1,4,5,6-tetrahydrocyclopenta[c]pyrazol-4-yl)amino)-7,8-dihydropteridin-6(5H)-one]: 1 to 5 µM; `Cc1nc(N[C@@H]2CCc3c2cnn3Cc2ccc(C(F)(F)F)nc2)nc2c1NC(=O)[C@H](C(C)C)N2C` [Compound 520, (S)-7-isopropyl-4,8-dimethyl-2-(((R)-1-((6-(trifluoromethyl)pyridin-3-yl)methyl)-1,4,5,6-tetrahydrocyclopenta[c]pyrazol-4-yl)amino)-7,8-dihydropteridin-6(5H)-one]: ≥ 5 µM.
Under `Cc1nc(N[C@H]2CCc3nn(Cc4ccc(C(F)(F)F)nc4)cc32)nc2c1NC(=O)[C@H](C(C)C)N2C` [Compound 521, (S)-7-isopropyl-4,8-dimethyl-2-(((S)-2-((6-(trifluoromethyl)pyridin-3-yl)methyl)-2,4,5,6-tetrahydrocyclopenta[c]pyrazol-4-yl)amino)-7,8-dihydropteridin-6(5H)-one] stands 1 to 5 µM.
Under `Cc1nc(N[C@H]2C[C@H](NC(=O)N3CCC(F)(F)CC3)C2)nc2c1NC(=O)[C@H](C(C)C)N2C` [Compound 523, 4,4-difluoro-N-(trans-3-(((S)-7-isopropyl-4,8-dimethyl-6-oxo-5,6,7,8-tetrahydropteridin-2-yl)amino)cyclobutyl)piperidine-1-carboxamide] stands ≥ 5 µM; under `Cc1nc(N[C@H]2C[C@H](NC(=O)NC3CCC(F)(F)CC3)C2)nc2c1NC(=O)[C@H](C(C)C)N2C` [Compound 524, 1-(4,4-difluorocyclohexyl)-3-(trans-3-(((S)-7-isopropyl-4,8-dimethyl-6-oxo-5,6,7,8-tetrahydropteridin-2-yl)amino)cyclobutyl)urea], ≥ 5 µM; under `Cc1nc(N[C@H]2C[C@@H](NC(=O)N3CCC(F)(F)CC3)C2)nc2c1NC(=O)[C@H](C(C)C)N2C` [Compound 525, 4,4-difluoro-N-(cis-3-(((S)-7-isopropyl-4,8-dimethyl-6-oxo-5,6,7,8-tetrahydropteridin-2-yl)amino)cyclobutyl)piperidine-1-carboxamide], ≥ 5 µM.
In the case of `Cc1nc(N[C@H]2C[C@@H](NC(=O)NC3CCC(F)(F)CC3)C2)nc2c1NC(=O)[C@H](C(C)C)N2C` [Compound 526, 1-(4,4-difluorocyclohexyl)-3-(cis-3-(((S)-7-isopropyl-4,8-dimethyl-6-oxo-5,6,7,8-tetrahydropteridin-2-yl)amino)cyclobutyl)urea], the IC50 was ≥ 5 µM.
Next, `Cc1nc(N[C@H]2C[C@@H](Nc3nccc(C(F)(F)F)n3)C2)nc2c1NC(=O)[C@H](C(C)C)N2C` [Compound 527, (S)-7-isopropyl-4,8-dimethyl-2-((cis-3-((4-(trifluoromethyl)pyrimidin-2-yl)amino)cyclobutyl)amino)-7,8-dihydropteridin-6(5H)-one]: 0.3 to 1 µM; `Cc1nc(N[C@H]2C[C@H](Nc3nccc(C(F)(F)F)n3)C2)nc2c1NC(=O)[C@H](C(C)C)N2C` [Compound 529, (S)-7-isopropyl-4,8-dimethyl-2-((trans-3-((4-(trifluoromethyl)pyrimidin-2-yl)amino)cyclobutyl)amino)-7,8-dihydropteridin-6(5H)-one]: 1 to 5 µM.
As to `Cc1nc(N[C@H]2C[C@H](Nc3cc(C(F)(F)F)ncn3)C2)nc2c1NC(=O)[C@H](C(C)C)N2C` [Compound 530, (S)-7-isopropyl-4,8-dimethyl-2-((trans-3-((6-(trifluoromethyl)pyrimidin-4-yl)amino)cyclobutyl)amino)-7,8-dihydropteridin-6(5H)-one], the IC50 is ≥ 5 µM.
Under `Cc1nc(N[C@H]2C[C@H](Nc3cccc(C(F)(F)F)n3)C2)nc2c1NC(=O)[C@H](C(C)C)N2C` [Compound 531, (S)-7-isopropyl-4,8-dimethyl-2-((trans-3-((6-(trifluoromethyl)pyridin-2-yl)amino)cyclobutyl)amino)-7,8-dihydropteridin-6(5H)-one] stands 0.3 to 1 µM; under `Cc1nc(N[C@H]2C[C@@H](Nc3cccc(C(F)(F)F)n3)C2)nc2c1NC(=O)[C@H](C(C)C)N2C` [Compound 532, (S)-7-isopropyl-4,8-dimethyl-2-((cis-3-((6-(trifluoromethyl)pyridin-2-yl)amino)cyclobutyl)amino)-7,8-dihydropteridin-6(5H)-one], 0.3 to 1 µM.
